Compound in one experiment: NC(=O)CCCCC1CCSS1 [lipoamide]
Put plainly: thermal stability z-score vs DMSO; higher = more thermally stabilized by treatment. Conditions: HeLa, lipoamide concentration 100 µM. On the procedure: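 Cellular thermal proteome profiling in HeLa cells. Cells were treated with 100 µM lipoamide for 1 h, with or without 1 mM arsenate for a further 1 h, then heated to ten temperatures (37-66.3 °C), and soluble protein was quantified by TMT mass spectrometry relative to 0.1% DMSO controls. The thermal stability score (sum of log2 fold changes minus the abundance score) was transformed to a z-score; mean of n = 3 experiments.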

Compound in a further experiment: O=[As]([O-])(O)O.[K+] [potassium arsenate]
The description is as above. To be noted: HeLa; arsenate concentration 1 mM. The procedure:
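Cellular thermal proteome profiling in HeLa cells treated with 1 mM arsenate for 1 h (DMSO pretreatment), heated to ten temperatures (37-66.3 °C). Soluble protein was quantified by TMT mass spectrometry relative to DMSO controls; the thermal stability score was transformed to a z-score; mean of n = 3 experiments.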

The mark [1] stands for this setting: arsenate co-treatment: 1 mM arsenate 1 h.
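Also: each temperature applied for 3 min, abundance score taken as mean log2 fold change at the two lowest temperatures, z-score obtained by mean subtraction and division by SD.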

UniProt Q9H7D7, sequence (Q9H7D7 whole entry): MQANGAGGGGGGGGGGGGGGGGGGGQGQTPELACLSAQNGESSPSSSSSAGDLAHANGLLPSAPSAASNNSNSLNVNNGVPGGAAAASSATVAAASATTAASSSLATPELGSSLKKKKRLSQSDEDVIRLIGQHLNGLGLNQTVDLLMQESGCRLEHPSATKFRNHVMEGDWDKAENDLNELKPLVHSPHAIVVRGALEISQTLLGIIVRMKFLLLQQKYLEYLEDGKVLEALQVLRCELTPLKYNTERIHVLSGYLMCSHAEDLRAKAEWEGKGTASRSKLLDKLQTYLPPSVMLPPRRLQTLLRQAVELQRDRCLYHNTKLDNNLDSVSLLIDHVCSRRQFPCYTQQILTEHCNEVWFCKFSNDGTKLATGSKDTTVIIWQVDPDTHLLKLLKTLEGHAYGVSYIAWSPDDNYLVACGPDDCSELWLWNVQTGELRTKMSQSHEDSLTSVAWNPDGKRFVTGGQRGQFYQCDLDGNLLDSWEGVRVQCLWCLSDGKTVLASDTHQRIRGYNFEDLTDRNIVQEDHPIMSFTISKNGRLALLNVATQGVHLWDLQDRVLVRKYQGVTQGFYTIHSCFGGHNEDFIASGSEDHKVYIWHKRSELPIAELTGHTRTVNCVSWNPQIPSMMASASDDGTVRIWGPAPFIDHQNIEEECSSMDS
UniProt O43379, sequence (O43379 whole entry): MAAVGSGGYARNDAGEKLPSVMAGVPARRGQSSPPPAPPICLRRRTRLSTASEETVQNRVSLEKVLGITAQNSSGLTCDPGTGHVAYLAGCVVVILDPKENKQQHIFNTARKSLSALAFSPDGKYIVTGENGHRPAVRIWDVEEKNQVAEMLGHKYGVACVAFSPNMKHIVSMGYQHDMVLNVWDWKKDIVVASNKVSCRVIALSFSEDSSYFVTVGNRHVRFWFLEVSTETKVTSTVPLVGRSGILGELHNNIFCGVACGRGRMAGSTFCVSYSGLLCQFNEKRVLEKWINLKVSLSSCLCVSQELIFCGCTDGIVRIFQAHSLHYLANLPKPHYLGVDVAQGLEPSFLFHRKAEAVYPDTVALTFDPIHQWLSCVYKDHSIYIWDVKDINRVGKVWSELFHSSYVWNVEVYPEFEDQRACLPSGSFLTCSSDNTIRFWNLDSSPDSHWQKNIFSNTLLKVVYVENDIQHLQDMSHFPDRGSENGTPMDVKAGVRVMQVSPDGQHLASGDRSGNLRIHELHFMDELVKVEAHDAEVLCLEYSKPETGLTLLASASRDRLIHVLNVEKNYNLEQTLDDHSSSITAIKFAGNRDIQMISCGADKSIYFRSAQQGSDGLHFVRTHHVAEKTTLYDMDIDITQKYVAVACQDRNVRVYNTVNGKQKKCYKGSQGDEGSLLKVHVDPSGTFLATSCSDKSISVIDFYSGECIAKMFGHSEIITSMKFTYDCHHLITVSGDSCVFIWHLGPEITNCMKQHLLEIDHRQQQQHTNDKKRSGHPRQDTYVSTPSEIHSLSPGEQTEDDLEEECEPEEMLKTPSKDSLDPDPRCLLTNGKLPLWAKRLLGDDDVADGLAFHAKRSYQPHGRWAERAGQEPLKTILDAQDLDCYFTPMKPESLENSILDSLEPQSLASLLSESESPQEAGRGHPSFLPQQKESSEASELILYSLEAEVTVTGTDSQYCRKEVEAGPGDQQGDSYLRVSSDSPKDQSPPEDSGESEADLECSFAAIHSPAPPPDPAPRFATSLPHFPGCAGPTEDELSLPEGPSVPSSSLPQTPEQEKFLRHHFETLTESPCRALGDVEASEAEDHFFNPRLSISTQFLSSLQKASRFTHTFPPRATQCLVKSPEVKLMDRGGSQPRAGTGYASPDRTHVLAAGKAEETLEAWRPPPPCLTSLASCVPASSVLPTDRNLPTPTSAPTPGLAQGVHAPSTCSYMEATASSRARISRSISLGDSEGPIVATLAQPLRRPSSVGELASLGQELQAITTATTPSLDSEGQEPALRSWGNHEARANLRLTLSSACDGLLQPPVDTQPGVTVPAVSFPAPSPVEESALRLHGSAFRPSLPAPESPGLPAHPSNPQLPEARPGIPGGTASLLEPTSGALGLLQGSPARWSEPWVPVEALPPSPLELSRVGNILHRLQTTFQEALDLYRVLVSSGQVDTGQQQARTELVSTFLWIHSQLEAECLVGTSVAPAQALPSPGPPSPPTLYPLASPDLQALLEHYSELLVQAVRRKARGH
UniProt Q9C0J8, sequence (Q9C0J8 whole entry): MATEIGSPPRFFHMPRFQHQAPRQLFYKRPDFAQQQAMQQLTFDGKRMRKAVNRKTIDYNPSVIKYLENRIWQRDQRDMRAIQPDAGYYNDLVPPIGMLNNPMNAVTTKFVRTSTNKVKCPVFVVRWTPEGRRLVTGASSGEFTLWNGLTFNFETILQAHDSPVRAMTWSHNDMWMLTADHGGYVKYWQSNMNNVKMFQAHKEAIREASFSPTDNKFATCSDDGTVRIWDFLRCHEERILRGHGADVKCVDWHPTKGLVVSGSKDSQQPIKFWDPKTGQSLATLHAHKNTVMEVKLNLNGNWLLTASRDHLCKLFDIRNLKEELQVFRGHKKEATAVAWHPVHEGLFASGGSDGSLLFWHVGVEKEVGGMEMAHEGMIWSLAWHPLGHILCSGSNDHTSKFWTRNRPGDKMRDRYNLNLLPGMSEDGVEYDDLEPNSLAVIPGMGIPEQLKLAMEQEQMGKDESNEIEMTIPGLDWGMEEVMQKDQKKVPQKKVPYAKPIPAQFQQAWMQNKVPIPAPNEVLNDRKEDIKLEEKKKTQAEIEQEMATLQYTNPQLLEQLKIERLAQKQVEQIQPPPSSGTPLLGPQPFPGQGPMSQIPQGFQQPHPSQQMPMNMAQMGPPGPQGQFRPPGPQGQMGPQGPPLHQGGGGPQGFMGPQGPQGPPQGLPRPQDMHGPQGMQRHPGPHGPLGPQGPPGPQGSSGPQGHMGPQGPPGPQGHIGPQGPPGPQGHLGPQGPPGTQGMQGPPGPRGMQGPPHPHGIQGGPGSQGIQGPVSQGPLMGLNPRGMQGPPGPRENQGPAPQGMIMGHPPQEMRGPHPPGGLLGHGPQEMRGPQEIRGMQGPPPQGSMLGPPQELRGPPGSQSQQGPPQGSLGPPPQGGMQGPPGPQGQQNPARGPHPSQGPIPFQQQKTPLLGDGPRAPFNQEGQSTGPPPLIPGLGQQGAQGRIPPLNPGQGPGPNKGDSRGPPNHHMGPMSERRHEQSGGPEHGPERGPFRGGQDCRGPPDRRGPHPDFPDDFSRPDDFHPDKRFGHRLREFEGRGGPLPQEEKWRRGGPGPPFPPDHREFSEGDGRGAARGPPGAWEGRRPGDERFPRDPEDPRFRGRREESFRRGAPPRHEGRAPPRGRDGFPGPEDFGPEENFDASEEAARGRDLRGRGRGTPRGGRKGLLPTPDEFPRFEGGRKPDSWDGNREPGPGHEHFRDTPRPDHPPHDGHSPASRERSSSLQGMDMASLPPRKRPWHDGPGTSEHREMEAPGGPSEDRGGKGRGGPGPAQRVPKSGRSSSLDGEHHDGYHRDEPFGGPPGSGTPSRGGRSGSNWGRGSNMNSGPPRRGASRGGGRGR
UniProt O94967, sequence (O94967 whole entry): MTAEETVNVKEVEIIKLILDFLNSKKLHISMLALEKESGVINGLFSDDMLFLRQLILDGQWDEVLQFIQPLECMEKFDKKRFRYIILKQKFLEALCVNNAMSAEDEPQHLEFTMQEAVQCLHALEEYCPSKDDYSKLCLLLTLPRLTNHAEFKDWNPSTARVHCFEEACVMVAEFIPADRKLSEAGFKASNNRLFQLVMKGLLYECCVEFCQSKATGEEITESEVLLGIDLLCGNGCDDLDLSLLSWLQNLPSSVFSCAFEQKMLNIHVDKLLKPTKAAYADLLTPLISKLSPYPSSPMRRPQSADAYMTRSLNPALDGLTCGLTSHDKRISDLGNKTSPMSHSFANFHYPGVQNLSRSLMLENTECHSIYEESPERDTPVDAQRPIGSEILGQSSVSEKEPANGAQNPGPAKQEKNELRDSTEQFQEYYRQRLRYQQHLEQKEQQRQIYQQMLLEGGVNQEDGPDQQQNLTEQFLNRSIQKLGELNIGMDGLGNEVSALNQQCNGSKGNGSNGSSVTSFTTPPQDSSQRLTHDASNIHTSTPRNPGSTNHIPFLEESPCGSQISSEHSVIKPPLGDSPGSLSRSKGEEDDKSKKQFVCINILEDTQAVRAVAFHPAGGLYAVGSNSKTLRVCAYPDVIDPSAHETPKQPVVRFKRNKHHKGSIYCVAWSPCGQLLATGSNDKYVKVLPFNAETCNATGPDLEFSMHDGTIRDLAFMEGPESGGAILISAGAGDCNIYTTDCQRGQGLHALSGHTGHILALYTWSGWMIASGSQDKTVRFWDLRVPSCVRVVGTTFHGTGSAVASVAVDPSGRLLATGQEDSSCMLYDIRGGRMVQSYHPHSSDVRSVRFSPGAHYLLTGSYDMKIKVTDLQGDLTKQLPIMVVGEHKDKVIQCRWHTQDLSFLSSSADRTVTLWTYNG
UniProt P57081, sequence (P57081 whole entry): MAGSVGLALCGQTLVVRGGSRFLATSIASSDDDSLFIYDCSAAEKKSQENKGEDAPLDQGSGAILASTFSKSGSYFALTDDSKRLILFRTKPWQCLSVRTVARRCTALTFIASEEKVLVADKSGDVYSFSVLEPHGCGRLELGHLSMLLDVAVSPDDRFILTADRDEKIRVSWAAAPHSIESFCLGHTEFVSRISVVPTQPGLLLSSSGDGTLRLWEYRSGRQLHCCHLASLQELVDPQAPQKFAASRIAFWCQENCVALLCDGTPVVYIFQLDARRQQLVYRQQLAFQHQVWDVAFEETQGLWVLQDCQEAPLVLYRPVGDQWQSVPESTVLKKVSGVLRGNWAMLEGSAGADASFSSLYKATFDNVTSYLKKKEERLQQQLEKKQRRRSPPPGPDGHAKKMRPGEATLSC
UniProt Q96HA8, sequence (Q96HA8 whole entry): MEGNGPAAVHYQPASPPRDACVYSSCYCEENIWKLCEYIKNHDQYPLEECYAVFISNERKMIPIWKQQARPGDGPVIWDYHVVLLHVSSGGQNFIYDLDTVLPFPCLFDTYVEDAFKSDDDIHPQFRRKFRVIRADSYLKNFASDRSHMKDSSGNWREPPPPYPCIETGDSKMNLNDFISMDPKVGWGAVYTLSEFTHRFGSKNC

As for WDFY2 (UniProt Q96P53), the thermal stability z-score was -0.402 with lipoamide (setting [1]), -0.11 with lipoamide (arsenate co-treatment: none) and -0.0121 with potassium arsenate.

As to WDFY3 (UniProt Q8IZQ1), the thermal stability z-score in the experiment with lipoamide (setting [1]) is -0.0589; with lipoamide (arsenate co-treatment: none), 0.0954; with potassium arsenate, -0.0794.

As for WDHD1 (UniProt O75717), the results for the thermal stability z-score with lipoamide (setting [1]), with lipoamide (arsenate co-treatment: none) and in the experiment with potassium arsenate were 1.28, 1.01 and -0.982, respectively.

In the case of WDR1 (UniProt O75083), the thermal stability z-score in the experiment with lipoamide (setting [1]) is 0.454; in the experiment with lipoamide (arsenate co-treatment: none), 0.0649; with potassium arsenate, -0.59.

In the case of WDR3 (UniProt Q9UNX4), the thermal stability z-score in the experiment with lipoamide (setting [1]) is -0.031; with lipoamide (arsenate co-treatment: none), 0.0101; with potassium arsenate, -0.0987.

Regarding WDR4 (UniProt P57081), the thermal stability z-score with lipoamide (setting [1]) is -0.105; in the experiment with lipoamide (arsenate co-treatment: none), -0.0364; with potassium arsenate, 0.00243.

Take WDR5 (UniProt P61964): the thermal stability z-score was 1.18 with lipoamide (setting [1]), 0.552 with lipoamide (arsenate co-treatment: none) and 0.234 with potassium arsenate.

As to WDR6 (UniProt Q9NNW5), the figures for the thermal stability z-score in the experiment with lipoamide (setting [1]), in the experiment with lipoamide (arsenate co-treatment: none) and in the experiment with potassium arsenate were -0.00677, 0.325 and 0.0479, respectively.

For the target WDR7 (UniProt Q9Y4E6), the thermal stability z-score in the experiment with lipoamide (setting [1]) is -0.338; with lipoamide (arsenate co-treatment: none), 0.149; with potassium arsenate it was -0.351.

For the target WDR11 (UniProt Q9BZH6), the thermal stability z-score was -0.207 with lipoamide (setting [1]), -0.147 with lipoamide (arsenate co-treatment: none) and -0.267 with potassium arsenate.

Take WDR12 (UniProt Q9GZL7): the thermal stability z-score with lipoamide (setting [1]) is 0.771; in the experiment with lipoamide (arsenate co-treatment: none), 0.222; with potassium arsenate, 0.0663.

With WDR13 (UniProt Q9H1Z4), the thermal stability z-score in the experiment with lipoamide (setting [1]) was -0.241; with lipoamide (arsenate co-treatment: none) it was -0.115; with potassium arsenate, -0.408.

Regarding WDR18 (UniProt Q9BV38), the thermal stability z-score turned out to be 1.38 with lipoamide (setting [1]), 0.361 with lipoamide (arsenate co-treatment: none) and 0.122 with potassium arsenate.

On to WDR19 (UniProt Q8NEZ3), for which the thermal stability z-score with lipoamide (setting [1]) was -0.121; with lipoamide (arsenate co-treatment: none), 0.369; with potassium arsenate it was 0.81.

Regarding WDR26 (UniProt Q9H7D7), the thermal stability z-score was -0.326 with lipoamide (setting [1]), -0.319 with lipoamide (arsenate co-treatment: none) and -0.602 in the experiment with potassium arsenate.

On to WDR33 (UniProt Q9C0J8), for which the values for the thermal stability z-score in the experiment with lipoamide (setting [1]), with lipoamide (arsenate co-treatment: none) and with potassium arsenate were 0.0589, -0.0858 and -0.105, respectively.

As for WDR34 (UniProt Q96EX3), the thermal stability z-score with lipoamide (setting [1]) was -0.251; with lipoamide (arsenate co-treatment: none), -0.215; with potassium arsenate, -0.776.

As for WDR36 (UniProt Q8NI36), the thermal stability z-score is 0.0966 in the experiment with lipoamide (setting [1]), 0.698 with lipoamide (arsenate co-treatment: none) and -0.285 with potassium arsenate.

For WDR41 (UniProt Q9HAD4), the thermal stability z-score with lipoamide (setting [1]) is -0.212; with lipoamide (arsenate co-treatment: none) it was -0.267; with potassium arsenate, -0.285.

As to WDR43 (UniProt Q15061), the results for the thermal stability z-score with lipoamide (setting [1]), with lipoamide (arsenate co-treatment: none) and in the experiment with potassium arsenate were -1.62, -1.02 and -0.817, respectively.

In the case of WDR44 (UniProt Q5JSH3), the thermal stability z-score with lipoamide (setting [1]) was 0.411; with lipoamide (arsenate co-treatment: none), 0.42; in the experiment with potassium arsenate, 0.635.

On to WDR45 (UniProt Q9Y484), for which the thermal stability z-score was -0.0374 in the experiment with lipoamide (setting [1]), 0.11 with lipoamide (arsenate co-treatment: none) and 0.292 in the experiment with potassium arsenate.

Consider WDR45B (UniProt Q5MNZ6), for which the thermal stability z-score was found to be 0.848 in the experiment with lipoamide (setting [1]), 0.63 in the experiment with lipoamide (arsenate co-treatment: none) and 0.162 with potassium arsenate.

In the case of WDR47 (UniProt O94967), the figures for the thermal stability z-score in the experiment with lipoamide (setting [1]), in the experiment with lipoamide (arsenate co-treatment: none) and in the experiment with potassium arsenate were 0.51, 0.317 and -0.0616, respectively.

Take WDR48 (UniProt Q8TAF3): the thermal stability z-score was 0.197 with lipoamide (setting [1]), 0.3 with lipoamide (arsenate co-treatment: none) and 1.13 with potassium arsenate.

Take WDR53 (UniProt Q7Z5U6): the thermal stability z-score was found to be 0.164 with lipoamide (setting [1]), 0.989 with lipoamide (arsenate co-treatment: none) and 1.07 with potassium arsenate.

On to WDR55 (UniProt Q9H6Y2), for which the thermal stability z-score was 0.00122 in the experiment with lipoamide (setting [1]), -0.679 with lipoamide (arsenate co-treatment: none) and -1.7 in the experiment with potassium arsenate.

WDR61 (UniProt Q9GZS3): the values for the thermal stability z-score in the experiment with lipoamide (setting [1]), in the experiment with lipoamide (arsenate co-treatment: none) and with potassium arsenate were 0.936, 0.285 and -0.236, respectively.

In the case of WDR62 (UniProt O43379), the thermal stability z-score is -0.259 in the experiment with lipoamide (setting [1]), -0.153 in the experiment with lipoamide (arsenate co-treatment: none) and -0.0901 with potassium arsenate.

As for WDR70 (UniProt Q9NW82), the values for the thermal stability z-score with lipoamide (setting [1]), with lipoamide (arsenate co-treatment: none) and with potassium arsenate were 0.397, 0.0128 and -0.891, respectively.

As for WDR73 (UniProt Q6P4I2), the figures for the thermal stability z-score with lipoamide (setting [1]), in the experiment with lipoamide (arsenate co-treatment: none) and with potassium arsenate were 0.0525, -0.0893 and -0.351, respectively.

For the target WDR74 (UniProt Q6RFH5), the values for the thermal stability z-score in the experiment with lipoamide (setting [1]), with lipoamide (arsenate co-treatment: none) and in the experiment with potassium arsenate were -1.21, -0.713 and -0.205, respectively.

Turning to WDR75 (UniProt Q8IWA0), the figures for the thermal stability z-score with lipoamide (setting [1]), with lipoamide (arsenate co-treatment: none) and in the experiment with potassium arsenate were 0.0395, 0.0658 and 0.152, respectively.

Consider WDR77 (UniProt Q9BQA1), for which the values for the thermal stability z-score in the experiment with lipoamide (setting [1]), with lipoamide (arsenate co-treatment: none) and with potassium arsenate were -0.484, 0.78 and -0.717, respectively.

With WDR81 (UniProt Q562E7), the thermal stability z-score was -0.0547 with lipoamide (setting [1]), -0.0815 in the experiment with lipoamide (arsenate co-treatment: none) and 0.105 with potassium arsenate.

Take WDR82 (UniProt Q6UXN9): the values for the thermal stability z-score in the experiment with lipoamide (setting [1]), in the experiment with lipoamide (arsenate co-treatment: none) and in the experiment with potassium arsenate were 0.88, -0.211 and -0.75, respectively.

As for WDR89 (UniProt Q96FK6), the thermal stability z-score with lipoamide (setting [1]) was 2.45; with lipoamide (arsenate co-treatment: none), 1.2; with potassium arsenate it was -12.3.

With WDR92 (UniProt Q96MX6), the thermal stability z-score in the experiment with lipoamide (setting [1]) was -0.0904; in the experiment with lipoamide (arsenate co-treatment: none), -0.202; in the experiment with potassium arsenate, 0.368.

For the target WDSUB1 (UniProt Q8N9V3), the thermal stability z-score amounted to 0.698 with lipoamide (setting [1]), 0.878 in the experiment with lipoamide (arsenate co-treatment: none) and 0.867 with potassium arsenate.

For the target WDYHV1 (UniProt Q96HA8), the thermal stability z-score with lipoamide (setting [1]) was 0.206; with lipoamide (arsenate co-treatment: none), 0.157; with potassium arsenate it was -0.625.

As to WEE1 (UniProt P30291), the thermal stability z-score with lipoamide (setting [1]) was -0.142; with lipoamide (arsenate co-treatment: none), 0.206; with potassium arsenate it was 0.00265.

Turning to WFS1 (UniProt O76024), the thermal stability z-score with lipoamide (setting [1]) was -0.47; with lipoamide (arsenate co-treatment: none), -0.487; with potassium arsenate, -0.022.

Turning to WIPF2 (UniProt Q8TF74), the results for the thermal stability z-score in the experiment with lipoamide (setting [1]), with lipoamide (arsenate co-treatment: none) and in the experiment with potassium arsenate were 0.726, 0.703 and 0.0475, respectively.

The values above are taken from the supplement of paper PMC12463676, “Small-molecule dissolution of stress granules by redox modulation benefits ALS models” (Nature Chemical Biology, 2025).
